Laboratory results: ChEMBL document CHEMBL1201862, “PubChem BioAssay data set” (2004)
Activity calls are given as the source filed them.

Legend:
[1] = molecular target: T1, Rac GTPase-activating protein 1 (Homo sapiens, UniProt Q9H0H5); test: MgcRacGAP GTPase-activating activity inhibitors, confirmation, biochemical, ADP Hunter fluorescence, primary and confirmatory (AID 624330); type: functional
T1 sequence (Q9H0H5 whole entry): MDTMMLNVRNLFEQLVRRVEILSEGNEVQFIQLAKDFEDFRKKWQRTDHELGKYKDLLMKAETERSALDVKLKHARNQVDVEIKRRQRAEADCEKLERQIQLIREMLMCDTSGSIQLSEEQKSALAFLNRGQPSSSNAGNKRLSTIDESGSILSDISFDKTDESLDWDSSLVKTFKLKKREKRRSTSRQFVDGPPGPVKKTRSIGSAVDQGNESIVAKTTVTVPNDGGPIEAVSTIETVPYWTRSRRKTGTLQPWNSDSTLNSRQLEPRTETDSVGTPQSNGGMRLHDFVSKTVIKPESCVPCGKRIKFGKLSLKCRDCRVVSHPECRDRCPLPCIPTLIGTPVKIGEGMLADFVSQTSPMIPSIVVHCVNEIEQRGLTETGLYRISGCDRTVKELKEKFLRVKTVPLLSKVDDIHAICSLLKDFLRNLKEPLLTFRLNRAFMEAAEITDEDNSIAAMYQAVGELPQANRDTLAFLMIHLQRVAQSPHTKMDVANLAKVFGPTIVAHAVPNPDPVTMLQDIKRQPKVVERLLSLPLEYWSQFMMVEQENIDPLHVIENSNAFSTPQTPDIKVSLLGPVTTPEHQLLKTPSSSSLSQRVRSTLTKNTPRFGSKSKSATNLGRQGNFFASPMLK

[2] = cytotoxicity toward DRD oncogenic fibroblasts, dose response, cell-based, non-viral oncogenic, luminescence (AID 1934); type: functional; settings: Homo sapiens
BJ [3] = test: cells; type: functional, cell-based; settings: Homo sapiens
BJ [4] = test: cytotoxicity toward BJ-TERT fibroblasts, dose response, cell-based, RAS-independent, luminescence (AID 1933); type: functional; settings: Homo sapiens
BJ [5] = test: cytotoxicity toward BJ-TERT-LT-ST fibroblasts, dose response, cell-based, RAS-independent, luminescence (AID 1935); type: functional; settings: Homo sapiens;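 also: BJ fibroblasts immortalized with TERT plus LT and ST oncogenes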
[6] = P. falciparum Dd2 growth inhibitors, dose response, SYBR Green, cherry-picked samples (AID 1159567); type: functional, cell-based
[7] = molecular target: T2, Corticotropin-releasing factor receptor 2/Corticotropin-releasing factor-binding protein (Homo sapiens, UniProt P24387+Q13324); test: activators of CRF receptor 2 with binding protein – uHTS hits, confirmation (AID 602473); type: functional; settings: read-out: EC50_Mean
T2 sequence (Q13324 whole entry): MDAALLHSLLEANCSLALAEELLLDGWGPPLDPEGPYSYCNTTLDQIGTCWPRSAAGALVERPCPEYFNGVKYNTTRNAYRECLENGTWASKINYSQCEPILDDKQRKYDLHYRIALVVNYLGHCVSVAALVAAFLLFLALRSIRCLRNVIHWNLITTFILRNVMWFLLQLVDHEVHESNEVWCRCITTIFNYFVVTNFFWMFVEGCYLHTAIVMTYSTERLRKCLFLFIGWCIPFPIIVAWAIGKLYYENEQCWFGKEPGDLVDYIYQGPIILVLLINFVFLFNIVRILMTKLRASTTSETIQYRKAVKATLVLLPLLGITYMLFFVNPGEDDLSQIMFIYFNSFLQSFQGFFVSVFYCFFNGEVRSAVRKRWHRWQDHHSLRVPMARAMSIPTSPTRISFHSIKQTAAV
T2 sequence (P24387 whole entry): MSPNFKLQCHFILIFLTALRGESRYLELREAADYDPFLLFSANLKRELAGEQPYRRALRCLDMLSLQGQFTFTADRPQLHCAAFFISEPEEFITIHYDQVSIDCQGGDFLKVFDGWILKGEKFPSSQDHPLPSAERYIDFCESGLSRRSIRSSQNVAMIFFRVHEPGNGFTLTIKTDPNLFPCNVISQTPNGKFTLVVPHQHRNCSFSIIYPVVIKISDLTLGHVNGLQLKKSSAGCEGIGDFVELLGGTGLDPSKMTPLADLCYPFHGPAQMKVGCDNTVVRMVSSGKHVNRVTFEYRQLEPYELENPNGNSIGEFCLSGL

[8] = microbe, parasite or virus in culture; type: functional; settings: Mycobacterium tuberculosis
cells = type: functional
[9] = HEp-2 cell cytotoxicity, dose response, cytotoxicity control for RSV inhibitor project, HTS (AID 2410); type: functional; settings: human respiratory syncytial virus
Cytochrome P450 3A4 = Cytochrome P450 3A4 (Homo sapiens, UniProt P08684);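 also: CYP3A4 tested as one member of a cytochrome P450 panel screen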
[10] = inhibitors of intracellular T. cruzi replication, confirmation, NIH3T3 host cells, beta-gal luminescence (AID 2044); type: functional, cell-based;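 also: intracellular parasites grown in NIH/3T3 mouse fibroblasts as host cells; luminescent beta-galactosidase reporter signal from transgenic T. cruzi replicating inside host cells; inhibitors lower the luminescence signal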
[11] = cytotoxicity toward NIH3T3 fibroblasts, dose response, counter-screen, cell-based, ATP luminescence, mouse fibroblasts (AID 2010); type: functional;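 also: cells exposed to compound for about 90 hours before reading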
[12] = inhibitors of SNCA 5'UTR-driven reporter translation, confirmation, H4 neuroglioma cells, luminescence (AID 1988); type: functional, cell-based
[13] = inhibitors of firefly luciferase expression or activity, dose response, H4 neuroglioma cells, luminescence (AID 1990); type: functional, cell-based

Chain of Cytochrome P450 3A4 (P08684 whole entry): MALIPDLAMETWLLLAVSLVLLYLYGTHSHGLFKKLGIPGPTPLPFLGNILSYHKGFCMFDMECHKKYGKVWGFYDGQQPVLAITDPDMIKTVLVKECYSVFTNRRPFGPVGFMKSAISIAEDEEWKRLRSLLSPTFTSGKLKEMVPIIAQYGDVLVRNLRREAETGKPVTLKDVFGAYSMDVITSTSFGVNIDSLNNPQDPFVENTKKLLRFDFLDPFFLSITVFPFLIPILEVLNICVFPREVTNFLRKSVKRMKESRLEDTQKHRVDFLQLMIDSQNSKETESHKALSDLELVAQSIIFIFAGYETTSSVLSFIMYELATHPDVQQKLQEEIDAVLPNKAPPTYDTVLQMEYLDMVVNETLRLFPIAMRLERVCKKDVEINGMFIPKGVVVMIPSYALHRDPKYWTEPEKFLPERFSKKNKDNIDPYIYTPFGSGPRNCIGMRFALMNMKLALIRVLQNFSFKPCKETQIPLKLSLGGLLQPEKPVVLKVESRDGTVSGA

**Q.** For `Nc1ccc2nc(N)sc2c1`, which IC50 [1] is on record?
**A.** Its IC50 is 9.57 µM (active).

**Q.** With `CCOc1cc(/C=N/NC(=O)CN2CCCCC2)ccc1O` as the compound, how does the IC50 [1] read?
**A.** Its IC50 is 50.4 µM (active).

**Q.** For `Cc1c(C(=O)N/N=C/c2ccccc2)[nH]c2c([N+](=O)[O-])cccc12`, which EC50 [2] is on record?
**A.** The EC50 was 27.1 µM (inconclusive).

**Q.** What about the EC50 (BJ [3]) of the same compound?
**A.** Its EC50 is 73.1 µM (inconclusive).

**Q.** What about the EC50 (BJ [4]) of the same compound?
**A.** Its EC50 is 0.776 µM (active).

**Q.** What about the EC50 (BJ [5]) of the same compound?
**A.** Its EC50 is 0.708 µM (inconclusive).

**Q.** For `C[C@H]1CN([C@@H](C)CO)C(=O)CCCn2nncc2CO[C@@H]1CN(C)C(=O)Nc1ccc(N2CCCCC2)cc1`, which AC50 [6] is on record?
**A.** Its AC50 is > 39 µM (inactive).

**Q.** With `O=C(Nc1nnc(-c2ccccc2)o1)c1cc(Cl)sc1Cl` as the compound, how does the EC50 [7] read?
**A.** The EC50 was > 53 µM (inactive).

**Q.** With `O=[N+]([O-])c1ncccc1Oc1nc(-c2cccnc2)nc2ccccc12` as the compound, how does the CC50 [8] read?
**A.** The CC50 was > 40 µM (active).

**Q.** What about the IC50 (cells) of the same compound?
**A.** Its IC50 is 1.15 µM (active).

**Q.** For `CCOC(=O)c1nnc2cc(-c3ccccc3)nn2c1C`, which CC50 [9] is on record?
**A.** Its CC50 is > 50 µM (active).

**Q.** Which AC50 [6] does the source give for `COc1ccc2c3c(n(C)c2c1)[C@H](CO)N(C(=O)Nc1ccc(F)cc1)CC31CN(C(=O)NC2CCCC2)C1` here?
**A.** Its AC50 is 5.8 µM (active).

**Q.** For `COc1ccc(-c2cc(C(F)(F)F)nc(SCc3cccc(C(=O)O)c3)n2)cc1`, which CC50 [9] is on record?
**A.** The CC50 was 22.2 µM (active).

**Q.** What about the AC50 (Cytochrome P450 3A4) of the same compound?
**A.** Its AC50 is 14.1 µM (inconclusive).

**Q.** Which EC50 [7] does the source give for `CCCCn1c(N)c(N(CC(C)C)C(=O)Cc2ccc(S(=O)(=O)N3CCOCC3)s2)c(=O)[nH]c1=O` here?
**A.** The EC50 was 6.11 µM (active).

**Q.** For `CN(C)/C=C1/C=C(c2ccccc2)OC1=O`, which IC50 [1] is on record?
**A.** Its IC50 is 52.1 µM (active).

**Q.** Which CC50 [9] does the source give for `Cc1nn(-c2ccccc2)c2c1C1(C(=O)Nc3ccccc31)N1C(=N2)Sc2ccccc21` (configuration not stated) here?
**A.** The CC50 was 18.4 µM (active).

**Q.** Which results are given for `COc1ccc2nc(-c3cccc(F)c3)cc(O)c2c1`?
**A.** EC50 [2]: 2.39 µM (inconclusive); EC50 (BJ [3]): 1.41 µM (inconclusive); EC50 (BJ [4]): 1.24 µM (active); EC50 (BJ [5]): 0.885 µM (active)

**Q.** Which results are given for `Cc1ccc(NC(=O)CSc2nc3ccccc3c(=O)n2CCCN2CCCCC2)cc1Cl`?
**A.** CC50 [8]: 14.4 µM (active); EC50 [10]: 2.29 µM (active); EC50 [11]: > 60 µM (inconclusive)

**Q.** Which AC50 [6] does the source give for `CCS(=O)(=O)N1CCCCN2[C@H](CO)[C@H](c3ccc(C#Cc4ccccc4OC)cc3)[C@@H]2C1` here?
**A.** The AC50 was 8.09 µM (active).

**Q.** For `CCCCCCC(=O)Nc1nc(C)c(-c2csc(Nc3ccccc3OC)n2)s1`, which CC50 [9] is on record?
**A.** The CC50 was 15 µM (active).

**Q.** Which IC50 [1] does the source give for `Cc1ccc(C)c(OCC(O)CN2CCC(C)CC2)c1C` (configuration not stated) here?
**A.** Its IC50 is 225 µM (active).

**Q.** With `O=C(NCCN1CCN(c2cccc(Cl)c2)CC1)c1ccc(CSc2nc3cc[nH]cc-3n2)cc1` as the compound, how does the CC50 [8] read?
**A.** The CC50 was > 40 µM (active).

**Q.** With `COc1cccc(C(=O)N2CCN(C3CCCCC3)CC2)c1` as the compound, how does the IC50 [1] read?
**A.** Its IC50 is 142 µM (active).

**Q.** With `COc1ccc(C#Cc2cccc(-c3nc(C(=O)N[C@@H]4CCN(Cc5ccccc5)C4)cc4c3[C@@H](CCO)N([S+]([O-])C(C)(C)C)C4)c2)cc1OC` (some centres not stated) as the compound, how does the AC50 [6] read?
**A.** Its AC50 is 3.58 µM (active).

**Q.** Which AC50 [6] does the source give for `CCCNC(=O)c1cc2c(c(-c3cccc(-c4cc5ccccc5o4)c3)n1)[C@@H](CCO)N(C(=O)NC(C)C)C2` here?
**A.** Its AC50 is 4.15 µM (active).

**Q.** For `COc1ccc(CCNC(=O)CC2(CC3=NS(=O)(=O)c4ccccc4N3)CCCC2)cc1OC`, which EC50 [12] is on record?
**A.** Its EC50 is > 120 µM (not active).

**Q.** What about the EC50 [13] of the same compound?
**A.** The EC50 was 18.8 µM (active).

**Q.** With `COC(=O)/C(=C\Nc1ccc(Cl)cc1Cl)NC(=O)c1ccc(OC)cc1` as the compound, how does the EC50 [2] read?
**A.** The EC50 was 4.31 µM (active).

**Q.** And the EC50 (BJ [3])?
**A.** Its EC50 is 57.7 µM (active).

**Q.** What about the EC50 (BJ [4]) of the same compound?
**A.** Its EC50 is 10 µM (inconclusive).

**Q.** What about the EC50 (BJ [5]) of the same compound?
**A.** Its EC50 is 15.3 µM (inconclusive).

**Q.** For `O=C(Nc1cccc(-c2nnc(-c3ccco3)o2)c1)C(c1ccccc1)c1ccccc1`, which CC50 [9] is on record?
**A.** Its CC50 is 15.2 µM (active).

**Q.** With `COc1cc(CNc2ccc(N3CCN(C(C)=O)CC3)cc2)ccc1OCc1ccccc1` as the compound, how does the IC50 [1] read?
**A.** The IC50 was 12.8 µM (active).

**Q.** For `COc1ccc(C#Cc2ccc3c(c2)[C@H]2[C@H](CCN2C(=O)C2CCC2)[C@@H](CO)N3)cc1`, which AC50 [6] is on record?
**A.** Its AC50 is 3.22 µM (active).

**Q.** Which results are given for `COc1cc(OC)cc(-c2cc3nc(C)c(CCC(=O)NC(C)CCc4ccco4)c(C)n3n2)c1` (configuration not stated)?
**A.** CC50 [8]: 31.8 µM (active); EC50 [10]: 0.45 µM (active); EC50 [11]: > 30 µM (not active)

**Q.** Which AC50 [6] does the source give for `COc1ccc(CNC(=O)c2cc3c(c(-c4cccc(-c5cccc(C#N)c5)c4)n2)[C@H](CCO)N([S@@+]([O-])C(C)(C)C)C3)cc1` here?
**A.** The AC50 was 3.46 µM (active).

**Q.** With `O=c1cc(-c2ccccc2)oc2ccccc12` [FLAVONE] as the compound, how does the CC50 [9] read?
**A.** The CC50 was 34.2 µM (active).

**Q.** With `Cc1ccc(C)c(S(=O)(=O)N2CCN(C(=O)c3ccccc3Cc3ccccc3)CC2)c1` as the compound, how does the CC50 [9] read?
**A.** Its CC50 is 22.6 µM (active).

**Q.** With `CC(=O)Nc1cccc(C(=O)/C=C/c2ccc(/C=C/C(=O)c3cccc(NC(C)=O)c3)cc2)c1` as the compound, how does the EC50 [2] read?
**A.** The EC50 was 5.45 µM (inconclusive).

**Q.** What about the EC50 (BJ [3]) of the same compound?
**A.** Its EC50 is > 150 µM (not active).

**Q.** And the EC50 (BJ [4])?
**A.** Its EC50 is 5.89 µM (inconclusive).

**Q.** And the EC50 (BJ [5])?
**A.** Its EC50 is 3.93 µM (inconclusive).

**Q.** For `CC(C)[C@H](CO)N(Cc1cccc(F)c1)c1nc(Nc2cccc(Cl)c2)c2ncn(C(C)C)c2n1`, which CC50 [8] is on record?
**A.** Its CC50 is > 40 µM (active).

**Q.** Which CC50 [9] does the source give for `CCOC(=O)c1nnc(-c2ccc(C)cc2)nc1Oc1ccccc1Cl` here?
**A.** The CC50 was 21.3 µM (active).
